# Like-named read-outs stand apart in the source and are kept apart here.
# Experiments:
# [1] = biological target: sigma-1 receptor (S1R); conditions: read-out: KI S1R, cited from earlier work
# [2] = system: S1R knockout mice; conditions: ref Fontanilla et al., 2009; cited from earlier work
# [3] = biological target: sigma-2 receptor (S2R); conditions: read-out: KI S2R, cited from earlier work
# [4] = system: S1R + S2R; test: Saturation binding of [3H]-DTG in rat liver; conditions: RL membranes
# [5] = ref 2 Fontanilla D et al. (2009) Science 323(5916): 934-937
# [6] = ref 1 Matsumoto RR et al. (1995) EJP 280: 301-310
# [7] = ref 8 Husbands SM et al (1997) J Med Chem 40:4340-4346
smiles,measurement,setting,value
"CN(C)CCc1c[nH]c2ccccc12 [Dimethyltryptamine, N,N-dimethyltryptamine]",Ki,[1]; [5],14700 nM
same,response in a behavioral assay measuring motor coordination,[2],failed to respond
same,Ki,[3]; [5],21700 nM
CN1CCN(CCc2ccc(Cl)c(Cl)c2)CC1 [BD1063],Ki,[1]; [6],9.2 nM
same,Ki,[3]; [6],449 nM
"Cc1ccccc1NC(=N)Nc1ccccc1C [[^3H]-DTG, [^3H]-1,3-di(2-tolyl)guanidine]","S1R + S2R Binding, Specific Binding",[4]; measured [3H]-DTG concentration 0.25 nM,0.44 pmol/mg
same,"S1R + S2R Binding, Specific Binding",[4]; measured [3H]-DTG concentration 0.8 nM,0.94 pmol/mg
same,"S1R + S2R Binding, Specific Binding",[4]; measured [3H]-DTG concentration 2.7 nM,2.21 pmol/mg
same,"S1R + S2R Binding, Specific Binding",[4]; measured [3H]-DTG concentration 9 nM,6.52 pmol/mg
same,"S1R + S2R Binding, Specific Binding",[4]; measured [3H]-DTG concentration 27 nM,11.36 pmol/mg
same,"S1R + S2R Binding, Specific Binding",[4]; measured [3H]-DTG concentration 92 nM,18.55 pmol/mg
same,"S1R + S2R Binding, Specific Binding",[4]; measured [3H]-DTG concentration 310 nM,20.14 pmol/mg
CN(C)CCN(C)CCc1ccc(Cl)c(Cl)c1 [BD1047],Ki,[1]; [6],0.93 nM
same,Ki,[3]; [6],47 nM
O=C(OCCN1CCOCC1)C1(c2ccccc2)CCCCC1 [PRE-084],Ki,[3]; ref 6 Maurice T. et al. (1999) Br J Pharmacol 127(2): 335-342,13100 nM
C[C@@H]1CN(CCCn2c3ccccc3c3ccccc32)C[C@H](C)N1 [Rimcazole],Ki,[1]; [7],[…]
same,Ki,[3]; [7],386 nM
